Measurements from US20020094524A1, “Compositions and methods for inhibiting HIV infection” (priority 2000, published 2002).

Key:
[1] = test system: HIV gag mRNA; test: HIV gag mRNA by RT-PCR / real time RT-PCR in infected MDM; format: cell-based
Procedure: HIV Infection: After 2 h incubation with or without the reagents described above, the cells were infected with equal amounts of cell-free HIV based on p24 antigen content (20 ng/10^6 cells) overnight, and then washed to remove unbound virus. Fresh media containing SP and/or CP-96,345 or anti-SP antibody were added to the MDM as described above. The culture media and the reagents were replaced twice weekly. The culture supernatants were harvested for HIV reverse transcriptase (RT) activity determinations. After HIV infection, the MDM were incubated for 8 to 12 days. At the termination of the experiments, cellular RNA was extracted for assessment of HIV gag gene expression using RT-PCR or real time RT-PCR assays.
Total RNA was isolated from human peripheral blood MDM (10^6 cells) using Tri-Reagent (Molecular Research Center, Cincinnati, Ohio) as we previously reported (16).
Reverse transcription: Total RNA (1 μg) was reverse transcribed using Reverse Transcription System (Promega, Madison, Wis.) with the specific primers (antisense) for HIV gag (5′-[…]-[…]-3′; SEQ ID NO: 1) (27) or CCR5 (5′-[…]-3′; SEQ ID NO: 2) (32) for 1 h at 42° C. RT reactions was terminated by incubating the reaction mixture at 99° C. for 5 min and then kept at 4° C. The resulting cDNA was used as a template for PCR amplification or real time PCR quantification. […]

[2] = test system: TNF-α; test: LPS-stimulated TNF-α production in MDM (ELISA); format: cell-based, human; conditions: 10^−9 to 10^−7M; LPS 1 ng/ml; 24 h; concentration-dependent (FIG. 11)
Procedure: In order to determine the role of CP-96,345 in the regulation of cytokine secretion, 7-day-cultured MDM were incubated with or without CP-96,345 (10^−9 to 10^−7M) and/or LPS (1 ng/ml) for 24 h. The culture supernatants were collected to determine TNF-α and IL-6 levels by ELISA. The ELISA kits were purchased from Endogen, Inc. (Woburn, Mass.).

[3] = test system: SP mRNA; test: SP mRNA expression in MDM (real-time RT-PCR); format: cell-based, human; conditions: 4 hours; indicated concentration (FIG. 17)
Procedure: FIG. 17. A graph showing the effect of CP-96,345 on SP mRNA expression in MDM. The MDM were incubated with (+) or without (−) the NK-1R antagonist at the indicated concentration for 4 hours. The SP mRNA levels were determined by a real-time RT-PCR. The SP mRNA levels in the CP-96,345 treated MDM are expressed as a percentage of that in untreated MDM which are defined as 100%.
The effect of CP-96,345 on SP mRNA expression in MDM was also determined. The MDM were incubated with (+) or without (−) the NK-1R antagonist at the indicated concentration for 4 hours. The SP mRNA levels were determined by a real-time RT-PCR.

[4] = test system: HIV Bal strain; test: HIV-induced syncytia formation in MDM; format: cell-based; conditions: 10^−7M; 12 days after infection (FIG. 2)
Procedure: Syncytia formation: To study the effect of neuropeptide antagonists on HIV-induced syncytia formation in MDM, 7-day-cultured macrophages were incubated in the presence or absence of CP-96,345 (10^−7M) for 2 h and then infected with HIV Bal strain. MDM which were neither incubated with CP-96,345 nor infected with HIV were used as a cell culture control. The morphology of HIV-induced syncytia formation was observed and photographed by a light microscopy (×400) 12 days after HIV infection.

SMILES: COc1ccccc1CN[C@H]1C2CCN(CC2)[C@H]1C(c1ccccc1)c1ccccc1 [CP-96,345, 2S, 3S)-cis-2-(diphenylmethyl)-N-[(2-methoxyphenyl)-methyl]-1-azabicyclo[[2.2.2]octan-3-amine]
- HIV gag mRNA expression (RT-PCR) ([1]; 10^−11 to 10^−7 M, 12 days after infection, concentration-dependent (FIG. 3 top panel)): potently inhibited
- HIV gag gene mRNA expression (real time RT-PCR copy numbers) ([1]; all three concentrations tested, 12 days after infection (FIG. 3)): significantly suppress
- LPS-stimulated TNF-α production in MDM [2]: attenuated
- SP mRNA expression in MDM [3]: significantly inhibited
- HIV-induced giant syncytia formation in MDM [4]: failed to develop the giant syncytia
